Source: patent US9295626B2, “Compositions comprising isosorbide monoester and N-hydroxypyridones” (Clariant International Ltd., priority 2011, dated 2016)

Key:
Enterobacter aerogenes = assay: Antimicrobial efficacy, MIC by agar dilution; type: cell-based; conditions: CASO agar pH 7
Description: (§1) Below, the antimicrobial efficacy of a composition according to the invention consisting of 50% by weight of isorbide caprylate 1 and 50% by weight of a 10% by weight strength solution of the monoethanolamine salt of 4-methyl-6-(2,4,4-trimethylpentyl)-1-hydroxy-2-pyridone (Octopirox®, 100% by weight strength, Clariant) in butyl polyglycol against bacteria, fungi and yeasts is examined (hereinbelow, the composition is referred to as “composition A”). For the tests with bacteria, composition A was diluted with butyl polyglycol and then, at 50° C., added to liquid CASO agar (casein-peptone agar) buffered to pH 7 (+/−0.2) in various concentrations (hereinbelow referred to as compositions B1, B2, etc.). For the tests with fungi and yeasts, composition A was diluted with butyl polyglycol and then added to liquid Sabouraud 4% dextrose agar buffered to pH 5.6 (+/−0.2) in various concentrations (hereinbelow referred to as compositions PH1, PH2, etc.). The compositions B1, B2, etc. and PH1, PH2 etc. were each poured into Petri dishes and each inoculated with identical amounts of bacteria, fungi and yeasts. The minimum inhibitory concentration (MIC) is the concentration at which inhibition of the growth of the bacteria, fungi and yeasts in the compositions B1, B2, etc. and PH1, PH2, etc. occurs.
(§2) The minimum inhibitory concentrations for the pure substances isosorbide caprylate 1 and Octopirox® were determined analogously.
(§3) The values determined for the minimum inhibitory concentrations “MIC mixture”, stated in Table 1 below, are based on the concentrations of composition A.
(§4) The values determined for the minimum inhibitory concentrations “QA” and “QB”, stated in Table 1 below, have already been corrected for the dilution effect of the butyl polyglycol.
(§5) Kull et al., Applied Microbiology 1961, 9, 538 using the formula below: SE=Qa/QA+Qb/QB where • Qa is the minimum inhibitory concentration of isosorbide caprylate 1 in the mixture employed, • QA is the minimum inhibitory concentration of isosorbide caprylate 1, • Qb is the minimum inhibitory concentration of Octopirox® in the mixture employed and • QB is the minimum inhibitory concentration of Octopirox®.
(§6) The values for Qa and Qb are determined from the values for the mixtures (“MIC mixture”) by multiplying the minimum inhibitory concentrations determined for Qa with the factor 0.5 and for Qb with the factor 0.05, because of the proportions of the ingredients—50% by weight of isosorbide caprylate 1 and 50% by weight of a 10% by weight strength solution of Octopirox® in butyl polyglycol—in composition A according to the invention examined.
(§7) If an SE value>1 is obtained, an antagonistic effect is present.
(§8) Analogously to the determination of the antimicrobial activity according to the above example B), the antimicrobial activity of a mixture comprising, firstly, 89.6% by weight of isosorbide dicaprylate and 9.4% by weight of isosorbide monocaprylate (remainder: 1% by weight) (hereinbelow referred to as “isosorbide dicaprylate”) and, secondly, pure isosorbide was determined in further test series.

Proteus vulgaris = assay: Antimicrobial efficacy, MIC by agar dilution; type: cell-based; conditions: CASO agar pH 7
Description: as §1, §2, §3, §4, §5, §6, §7, §8

Escherichia coli = assay: Antimicrobial efficacy, MIC by agar dilution; type: cell-based; conditions: CASO agar pH 7
Description: as §1, §2, §3, §4, §5, §6, §7, §8

Staphylococcus aureus = assay: Antimicrobial efficacy, MIC by agar dilution; type: cell-based; conditions: CASO agar pH 7
Description: as §1, §2, §3, §4, §5, §6, §7, §8

Fusarium solani = assay: Antimicrobial efficacy, MIC by agar dilution; type: cell-based; conditions: Sabouraud 4% dextrose agar pH 5.6
Description: as §1, §2, §3, §4, §5, §6, §7, §8

Aspergillus brasiliensis = assay: Antimicrobial efficacy, MIC by agar dilution; type: cell-based; conditions: Sabouraud 4% dextrose agar pH 5.6
Description: as §1, §2, §3, §4, §5, §6, §7, §8

Candida albicans = assay: Antimicrobial efficacy, MIC by agar dilution; type: cell-based; conditions: Sabouraud 4% dextrose agar pH 5.6
Description: as §1, §2, §3, §4, §5, §6, §7, §8

Penicillium funicolosium = assay: Antimicrobial efficacy, MIC by agar dilution; type: cell-based; conditions: Sabouraud 4% dextrose agar pH 5.6
Description: as §1, §2, §3, §4, §5, §6, §7, §8

Pseudomonas oleovorans = assay: Antimicrobial efficacy, MIC by agar dilution; type: cell-based; conditions: CASO agar pH 7
Description: as §1, §2, §3, §4, §5, §6, §7, §8

Pseudomonas aeruginosa = assay: Antimicrobial efficacy, MIC by agar dilution; type: cell-based; conditions: CASO agar pH 7
Description: as §1, §2, §3, §4, §5, §6, §7, §8

Aspergillus terreus = assay: Antimicrobial efficacy, MIC by agar dilution; type: cell-based; conditions: Sabouraud 4% dextrose agar pH 5.6
Description: as §1, §2, §3, §4, §5, §6, §7, §8

Penicillium minioluteum = assay: Antimicrobial efficacy, MIC by agar dilution; type: cell-based; conditions: Sabouraud 4% dextrose agar pH 5.6
Description: as §1, §2, §3, §4, §5, §6, §7, §8

Citrobacter freundii = assay: Antimicrobial efficacy, MIC by agar dilution; type: cell-based; conditions: CASO agar pH 7
Description: as §1, §2, §3, §4, §5, §6, §7, §8

Klebsiella pneumoniae = assay: Antimicrobial efficacy, MIC by agar dilution; type: cell-based; conditions: CASO agar pH 7
Description: as §1, §2, §3, §4, §5, §6, §7, §8

[1] = tested on: bacteria, fungi and yeasts; conditions: general statement, no test described, cited from earlier work
[2] = tested on: bacteria, fungi and yeasts; assay: Antimicrobial activity overall; type: cell-based
Description: Below, the antimicrobial efficacy of a composition according to the invention consisting of 50% by weight of isorbide caprylate 1 and 50% by weight of a 10% by weight strength solution of the monoethanolamine salt of 4-methyl-6-(2,4,4-trimethylpentyl)-1-hydroxy-2-pyridone (Octopirox®, 100% by weight strength, Clariant) in butyl polyglycol against bacteria, fungi and yeasts is examined (hereinbelow, the composition is referred to as “composition A”). For the tests with bacteria, composition A was diluted with butyl polyglycol and then, at 50° C., added to liquid CASO agar (casein-peptone agar) buffered to pH 7 (+/−0.2) in various concentrations (hereinbelow referred to as compositions B1, B2, etc.). […]
The minimum inhibitory concentrations for the pure substances isosorbide caprylate 1 and Octopirox® were determined analogously. […]
as §8

[3] = MIC of Octopirox alone, corrected for butyl polyglycol dilution
[4] = MIC of Octopirox in the mixture (MIC mixture x 0.05)

Cc1cc(CC(C)CC(C)(C)C)n(O)c(=O)c1.NCCO (centres unmarked) [Octopirox®, monoethanolamine salt of 4-methyl-6-(2,4,4-trimethylpentyl)-1-hydroxy-2-pyridone]
OB, meas. (Enterobacter aerogenes; [3]): 100 ppm
Ob, calc. (Enterobacter aerogenes; [4]): 25 ppm
OB, meas. (Proteus vulgaris; [3]): 25 ppm
Ob, calc. (Proteus vulgaris; [4]): 12.5 ppm
OB, meas. (Escherichia coli; [3]): 25 ppm
Ob, calc. (Escherichia coli; [4]): 25 ppm
OB, meas. (Staphylococcus aureus; [3]): 25 ppm
Ob, calc. (Staphylococcus aureus; [4]): 25 ppm
OB, meas. (Fusarium solani; [3]): 20 ppm
Ob, calc. (Fusarium solani; [4]): 10 ppm
OB, meas. (Aspergillus brasiliensis; [3]): 20 ppm
Ob, calc. (Aspergillus brasiliensis; [4]): 10 ppm
OB, meas. (Candida albicans; [3]): 20 ppm
Ob, calc. (Candida albicans; [4]): 10 ppm
OB, meas. (Penicillium funicolosium; [3]): 20 ppm
Ob, calc. (Penicillium funicolosium; [4]): 10 ppm
OB, meas. (Pseudomonas oleovorans; [3]): 50 ppm
Ob, calc. (Pseudomonas oleovorans; [4]): 25 ppm
OB, meas. (Pseudomonas aeruginosa; [3]): 25 ppm
Ob, calc. (Pseudomonas aeruginosa; [4]): 25 ppm
OB, meas. (Aspergillus terreus; [3]): 20 ppm
Ob, calc. (Aspergillus terreus; [4]): 10 ppm
OB, meas. (Penicillium minioluteum; [3]): 20 ppm
Ob, calc. (Penicillium minioluteum; [4]): 10 ppm
OB, meas. (Citrobacter freundii; [3]): 50 ppm
Ob, calc. (Citrobacter freundii; [4]): 25 ppm
OB, meas. (Klebsiella pneumoniae; [3]): 50 ppm
Ob, calc. (Klebsiella pneumoniae; [4]): 25 ppm

CCCCCCCC(=O)O [caprylic acid]
antimicrobial efficacy [1]: antimicrobially effective
antimicrobial activity at a pH of 6 or above ([1]; pH of 6 or above): no antimicrobial activity

O[C@@H]1CO[C@H]2[C@@H]1OC[C@@H]2O [isosorbide]
antimicrobial activity (summary of Table 2) ([2]; all bacteria, fungi and yeasts of Table 2): neither isosorbide nor isosorbide dicaprylate are antimicrobially active

isosorbide monocaprylate
antimicrobial activity (concluded) ([2]; concluded from QA of isosorbide caprylate 1 and inactivity of its other constituents): significant antimicrobial activity
